Columns and labels:
rat [1] = details: Combined chronic toxicity/carcinogenicity, fischer, Oral, Feed, dose end: 13 week, group: systemic
mouse [2] = details: Combined chronic toxicity/carcinogenicity, b6c3f1, Oral, Feed, dose end: 5 week, group: systemic
mouse [3] = details: Combined chronic toxicity/carcinogenicity, b6c3f1, Oral, Feed, dose end: 104 week, group: systemic
rat [4] = details: Combined chronic toxicity/carcinogenicity, fischer, Oral, Feed, dose end: 119 week, group: systemic
mouse [5] = details: Combined chronic toxicity/carcinogenicity; b6c3f1; Oral; Feed; dose end: 104 week; group: systemic; systemic / in life observation / body weight / body weight + systemic / in life observation / body weight / body weight gain + systemic / …
rat [6] = details: Combined chronic toxicity/carcinogenicity; fischer; Oral; Feed; dose end: 24 month; group: systemic; systemic / in life observation / body weight / body weight + systemic / in life observation / body weight / body weight gain + systemic / …
rat [7] = details: Subchronic oral toxicity in rodents, fischer, Feed, dose end: 13 week
dog [8] = details: Chronic toxicity; beagle; Oral; Feed; dose end: 52 week; group: systemic; systemic / organ weight / adrenal gland / absolute + systemic / organ weight / adrenal gland / relative to body weight + systemic / …
rat [9] = details: Prenatal developmental toxicity study, sprague dawley, Oral, Gavage/Intubation, dose end: 17 GD
dog [10] = details: Chronic toxicity, beagle, Oral, Feed, dose end: 52 week, group: systemic
rat [11] = details: Prenatal developmental toxicity study, other, Oral, Gavage/Intubation, dose end: 15 GD
mouse [12] = details: Combined chronic toxicity/carcinogenicity, other, Oral, [Not Specified], dose end: 99 week, group: systemic
mouse [13] = details: Combined chronic toxicity/carcinogenicity, other, Oral, Feed, dose end: 104 week, group: systemic
rat [14] = details: Combined chronic toxicity/carcinogenicity, wistar, Oral, Feed, dose end: 104 week
dog [15] = details: Subchronic oral toxicity in nonrodent, beagle, Feed, dose end: 13 week, group: systemic, systemic / organ weight / lung / relative to body weight + systemic / pathology gross / lung / [other] + systemic / pathology microscopic / …
dog [16] = details: Sub-acute repeat dose toxicity, beagle, Oral, Gavage/Intubation, dose end: 14 day, group: systemic
rat [17] = details: Sub-acute repeat dose toxicity; sprague dawley; Oral; Gavage/Intubation; dose end: 14 day; group: systemic; systemic / clinical chemistry / [other] / [other] + systemic / clinical chemistry / 5' nucleotidase / 5' nucleotidase + systemic / clinical …
[18] = systemic / organ weight / spleen / absolute + systemic / organ weight / spleen / relative to body weight
[19] = systemic / organ weight / liver / absolute + systemic / organ weight / liver / relative to body weight + systemic / pathology microscopic / …
[20] = systemic / organ weight / kidney / absolute + systemic / organ weight / liver / relative to body weight
[21] = systemic / organ weight / kidney / absolute + systemic / organ weight / liver / relative to body weight + systemic / organ weight / kidney…
[22] = systemic / in life observation / body weight / body weight gain + systemic / organ weight / liver / relative to body weight + systemic / …
[23] = group: cholinesterase, cholinesterase / cholinesterase / cholinesterase / plasma cholinesterase (che)
[24] = group: systemic, systemic / organ weight / kidney / relative to body weight + systemic / organ weight / liver / absolute + systemic / organ weight / liver / …
[25] = group: developmental, developmental / developmental malformation / bone / delayed ossification
[26] = group: maternal, systemic / in life observation / body weight / body weight gain + systemic / in life observation / food consumption / food consumption + …
[27] = systemic / pathology microscopic / lung / [other] + systemic / urinalysis / [other] / urine
[28] = group: developmental, developmental / developmental malformation / bone / delayed ossification + systemic / in life observation / body weight / fetal weight
[29] = group: maternal, systemic / in life observation / body weight / body weight gain + systemic / in life observation / clinical signs / emaciation + systemic / …
[30] = systemic / in life observation / body weight / body weight + systemic / in life observation / food consumption / food consumption + systemic…
[31] = systemic / in life observation / food consumption / food consumption + systemic / pathology microscopic / blood / [other] + systemic / …
[32] = group: cholinesterase, cholinesterase / cholinesterase / cholinesterase / erythrocyte cholinesterase (che)
[33] = group: systemic, systemic / organ weight / kidney / absolute + systemic / organ weight / ovary / absolute
[34] = group: systemic, systemic / organ weight / kidney / absolute + systemic / organ weight / ovary / absolute + systemic / organ weight / brain / relative to …
[35] = systemic / clinical chemistry / cholesterol / cholesterol + systemic / clinical chemistry / thyroid stimulating hormone (thyrotropin) (tsh…
[36] = systemic / clinical chemistry / thyroid stimulating hormone (thyrotropin) (tsh) / thyroid stimulating hormone (=thyrotropin) (tsh) + …

CC(C)=CC1C(C(=O)OCc2cccc(Oc3ccccc3)c2)C1(C)C (centres undefined) [Phenothrin]
LOAEL (rat [1]; systemic / clinical chemistry / cholesterol / cholesterol + systemic / clinical chemistry / lactic acid dehydrogenase (ldh) / lactic acid …): 216 mg/kg/day | LEL (rat [1]; [18]): 21 mg/kg/day | NEL (rat [1]; [18]): < 21 mg/kg/day | NOAEL (rat [1]; systemic / organ weight / spleen / absolute + systemic / organ weight / spleen / relative to body weight + systemic / clinical chemistry / …): 70 mg/kg/day | LOAEL (mouse [2]; [19]): 565 mg/kg/day | NEL (mouse [2]; [19]): 57 mg/kg/day | NOAEL (mouse [2]; [19]): 190 mg/kg/day | LEL (mouse [2]; systemic / pathology microscopic / liver / necrosis): 190 mg/kg/day | LEL (mouse [3]; [20]): 45 mg/kg/day | NEL (mouse [3]; [20]): < 45 mg/kg/day | LOAEL (mouse [3]; [21]): 150 mg/kg/day | NOAEL (mouse [3]; [21]): 45 mg/kg/day | NOAEL (rat [4]; systemic / in life observation / body weight / body weight gain): 50 mg/kg/day | LEL (rat [4]; [22]): 150 mg/kg/day | LOAEL (rat [4]; [22]): 150 mg/kg/day | NEL (rat [4]; systemic / organ weight / liver / relative to body weight): 50 mg/kg/day

C[C@H]1[C@H](c2ccc(Cl)cc2)SC(=O)N1C(=O)NC1CCCCC1 [Hexythiazox]
LEL (mouse [5]): 267 mg/kg/day | LOAEL (mouse [5]): 267 mg/kg/day | NEL (mouse [5]): 41.6 mg/kg/day | NOAEL (mouse [5]): 41.6 mg/kg/day | LEL (rat [6]): 163 mg/kg/day | LOAEL (rat [6]): 163 mg/kg/day | NEL (rat [6]): 23 mg/kg/day | NOAEL (rat [6]): 23 mg/kg/day | LEL (rat [7]; [23]): 50 mg/kg/day | LOAEL (rat [7]; [23]): > 350 mg/kg/day | NEL (rat [7]; [23]): 7 mg/kg/day | NOAEL (rat [7]; [23]): ≥ 350 mg/kg/day | LEL (rat [7]; [24]): 50 mg/kg/day | LOAEL (rat [7]; [24]): 50 mg/kg/day | NEL (rat [7]; [24]): 7 mg/kg/day | NOAEL (rat [7]; [24]): 7 mg/kg/day | LEL (dog [8]): 13.1 mg/kg/day | LOAEL (dog [8]): 13.1 mg/kg/day | NEL (dog [8]): 2.87 mg/kg/day | NOAEL (dog [8]): 2.87 mg/kg/day | LEL (rat [9]; [25]): 720 mg/kg/day | LOAEL (rat [9]; [25]): > 2160 mg/kg/day | NEL (rat [9]; [25]): 240 mg/kg/day | NOAEL (rat [9]; [25]): ≥ 2160 mg/kg/day | LOAEL (rat [9]; group: maternal, systemic / in life observation / body weight / body weight gain + systemic / in life observation / food consumption / food consumption): 720 mg/kg/day | LEL (rat [9]; [26]): 720 mg/kg/day | NEL (rat [9]; [26]): 240 mg/kg/day | NOAEL (rat [9]; [26]): 240 mg/kg/day

C[n+]1ccc(-c2cc[n+](C)cc2)cc1.[Cl-].[Cl-] [Paraquat dichloride]
LEL (dog [10]; [27]): 0.45 mg/kg/day | NEL (dog [10]; [27]): < 0.45 mg/kg/day | LOAEL (dog [10]; systemic / pathology microscopic / lung / inflammation): 0.93 mg/kg/day | NOAEL (dog [10]; systemic / pathology microscopic / lung / inflammation + systemic / pathology microscopic / ear / squamous cell papilloma + systemic / in …): 0.45 mg/kg/day | LOAEL (rat [11]; [25]): 5 mg/kg/day | LEL (rat [11]; [28]): 5 mg/kg/day | NEL (rat [11]; [28]): 1 mg/kg/day | NOAEL (rat [11]; [28]): 1 mg/kg/day | LEL (rat [11]; [29]): 5 mg/kg/day | LOAEL (rat [11]; [29]): 5 mg/kg/day | NEL (rat [11]; [29]): 1 mg/kg/day | NOAEL (rat [11]; [29]): 1 mg/kg/day | LOAEL (mouse [12]; [30]): 5.62 mg/kg/day | NOAEL (mouse [12]; [30]): 1.88 mg/kg/day | LEL (mouse [12]; [31]): 1.88 mg/kg/day | NEL (mouse [12]; [31]): < 1.88 mg/kg/day | NOAEL (mouse [13]; systemic / hematology / leukocyte (wbc) count differential / leukocyte (wbc)): 3.82 mg/kg/day | LOAEL (mouse [13]; systemic / hematology / leukocyte (wbc) count differential / leukocyte (wbc) + systemic / hematology / erythrocyte (rbc) count differential…): 13 mg/kg/day | LEL (mouse [13]; systemic / pathology microscopic / mammary gland / [other]): 3.82 mg/kg/day | NEL (mouse [13]; systemic / pathology microscopic / mammary gland / [other] + systemic / clinical chemistry / glucose / glucose + systemic / clinical …): 1.32 mg/kg/day | LEL (rat [14]; [32]): 15 mg/kg/day | LOAEL (rat [14]; [32]): 15 mg/kg/day | NEL (rat [14]; [32]): 5 mg/kg/day | NOAEL (rat [14]; [32]): 5 mg/kg/day | NEL (rat [14]; [33]): 5 mg/kg/day | NOAEL (rat [14]; [33]): 5 mg/kg/day | LEL (rat [14]; [34]): 15 mg/kg/day | LOAEL (rat [14]; [34]): 15 mg/kg/day | LEL (dog [15]): 1.5 mg/kg/day | LOAEL (dog [15]): 1.5 mg/kg/day | NEL (dog [15]): 0.5 mg/kg/day | NOAEL (dog [15]): 0.5 mg/kg/day

Cc1cc(NC(=O)C(=O)O)cc(C)c1Oc1ccc(O)c2c1CCC2
LEL (dog [16]; [35]): 5 mg/kg/day | NEL (dog [16]; [35]): < 5 mg/kg/day | LOAEL (dog [16]; [36]): > 100 mg/kg/day | NOAEL (dog [16]; [36]): ≥ 100 mg/kg/day | LEL (rat [17]): 1 mg/kg/day | LOAEL (rat [17]): > 1000 mg/kg/day | NEL (rat [17]): < 1 mg/kg/day | NOAEL (rat [17]): ≥ 1000 mg/kg/day
